One data set has as its target T1, TYK2 (Homo sapiens, UniProt P29597).
T1 construct: purchased Carna Biosciences
Nature of the data set: TYK2 microfluidic kinase assay (Caliper EZ Reader II, FAM labeled peptide substrate). The class given is biochemical. To be noted: IC50 TYK2 ([…]) (1 mM ATP), TYK2 […], 1 mM ATP. Here is the method: Compounds were tested against JAK1, JAK2, JAK2V617F and TYK2. Assay Formats: JAK activity was determined in the reaction buffer 50 mM HEPES, 0.01% Brij35, 10 mM MgCl2, 2 mM DTT by a microfluidic assay. The phosphorylation of a FAM labeled peptide substrate was monitored in the Caliper EZ Reader II (Perkin Elmer). The assay condition for each batch of enzyme (Carna Biosciences) was optimized to obtain 10% conversion rate of peptide substrate. The test compounds were dissolved in DMSO to a stock concentration of 10 mM. 3-fold serially diluted compounds with top concentration of 5 μM were pre-incubated with JAK1, JAK2, JAK2V617F or TYK2 at indicated concentrations for 10 min at ambient temperature. The final DMSO concentration of assay mixture was 1%. […] The reaction was stopped by adding 50 mM EDTA. The reaction time for JAK1, JAK2, JAK2V617F and TYK2 was 120 min, 20 min, 30 min and 10 min, respectively. […] And the well without compound but with equivalent DMSO was defined as no inhibition. The percent inhibition was calculated by the following formula. % Inhibition=(Conversionmax−Conversionsample)/(Conversionmax−Conversionmin)*100 • Conversionmax means the conversion rate in the positive well without addition of compound • Conversionmin means the conversion rate in the well without addition of enzyme • Conversionsample means the conversion rate of test compounds The dose-response (percent inhibition) curve was plotted and IC50 values were determined by GraphPad software.

For the next data set, the target named is T2, JAK2 (Homo sapiens, UniProt O60674).
T2 construct: purchased Carna Biosciences
T2 sequence (O60674 whole entry): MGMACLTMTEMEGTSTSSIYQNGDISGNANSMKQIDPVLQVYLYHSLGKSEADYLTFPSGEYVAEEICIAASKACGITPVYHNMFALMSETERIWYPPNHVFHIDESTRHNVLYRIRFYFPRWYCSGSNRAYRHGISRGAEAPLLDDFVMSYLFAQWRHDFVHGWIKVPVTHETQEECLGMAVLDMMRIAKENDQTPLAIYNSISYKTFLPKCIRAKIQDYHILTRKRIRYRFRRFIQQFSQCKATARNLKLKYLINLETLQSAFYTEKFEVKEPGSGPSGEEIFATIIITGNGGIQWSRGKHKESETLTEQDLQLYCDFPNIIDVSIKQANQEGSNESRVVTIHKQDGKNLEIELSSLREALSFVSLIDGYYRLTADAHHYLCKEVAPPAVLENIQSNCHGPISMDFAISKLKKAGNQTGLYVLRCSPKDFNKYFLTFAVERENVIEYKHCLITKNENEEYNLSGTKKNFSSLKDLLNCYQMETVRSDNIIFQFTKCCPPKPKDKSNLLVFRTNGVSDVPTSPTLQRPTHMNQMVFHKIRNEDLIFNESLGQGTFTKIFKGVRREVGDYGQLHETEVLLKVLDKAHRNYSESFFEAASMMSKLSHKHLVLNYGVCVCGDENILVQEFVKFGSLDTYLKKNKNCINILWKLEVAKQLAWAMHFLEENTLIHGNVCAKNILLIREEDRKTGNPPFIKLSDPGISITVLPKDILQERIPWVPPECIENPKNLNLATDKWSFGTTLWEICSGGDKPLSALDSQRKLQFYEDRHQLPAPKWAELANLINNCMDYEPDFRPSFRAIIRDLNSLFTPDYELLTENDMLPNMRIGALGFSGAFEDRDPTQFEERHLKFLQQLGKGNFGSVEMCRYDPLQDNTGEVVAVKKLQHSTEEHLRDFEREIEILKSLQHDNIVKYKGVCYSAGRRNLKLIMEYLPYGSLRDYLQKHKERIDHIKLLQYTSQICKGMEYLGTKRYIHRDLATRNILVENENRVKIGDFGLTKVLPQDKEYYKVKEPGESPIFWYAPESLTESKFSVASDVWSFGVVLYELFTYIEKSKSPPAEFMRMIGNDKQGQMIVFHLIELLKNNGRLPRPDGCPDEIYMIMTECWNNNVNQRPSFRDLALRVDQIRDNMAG
Nature of the data set: JAK2 microfluidic kinase assay (Caliper EZ Reader II, FAM labeled peptide substrate). In kind it is biochemical. To be noted: IC50 JAK2 ([…]) (1 mM ATP), 1 mM ATP. Put shortly:
(§1)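 Microfluidic mobility-shift kinase assay in 50 mM HEPES, 0.01% Brij35, 10 mM MgCl2, 2 mM DTT. IC50 values come from percent-inhibition curves normalised to uninhibited and enzyme-free controls.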

A further data set has as its target T3, JAK1 (Homo sapiens, UniProt P23458).
T3 construct: purchased Carna Biosciences
Description: JAK1 microfluidic kinase assay (Caliper EZ Reader II, FAM labeled peptide substrate). To be noted: IC50 JAK1 (5 nM) (1 m MATP), JAK1 5 nM, 1 mM ATP. The class given is biochemical. The gist of the method: as §1

In another data set the target is T4, JAK2V617F (Homo sapiens, UniProt O60674, V617F).
T4 construct: purchased Carna Biosciences
T4 sequence (O60674 whole entry V617F): as the sequence (O60674 whole entry) above, with V617F counted along it
Nature of the data set: JAK2V617F microfluidic kinase assay (Caliper EZ Reader II, FAM labeled peptide substrate). In kind it is biochemical. To be noted: JAK2V617F 2.5 nM, 1 mM ATP. The gist of the method: as §1

A short description of data set [1]: Liver microsomes study, Phase I stability (HLM). The class given is in vitro ADME, human. Particulars: pH 7.4. How it is done: (§2) Commercially available liver microsomes (MsLM vendor: XENOTECH; RLM, DLM, MkL, HLM vendor: Corning) were used for study the Phase I stability of test articles. […] The reaction was initiated by addition of 80 μL of the NADPH regenerating system to 320 µL of each incubation mixture per time point. […] The 0-minute samples were prepared by addition of an 80 μL aliquot of each incubation mixture to 400 μL quench reagent to precipitate proteins. And then a 20 μL aliquot of the NADPH regenerating system was added. At 10, 30, and 90 minutes, the reaction will be stopped by the addition of cold acetonitrile solution containing tolbutamide and propanolol served as internal standard. The samples taken at all time points were centrifuged at 4000×g for 15 minutes. 80 μL of supernatant are taken into 96-well assay plates pre-added with 160 μL ultrapure water, and then analyzed by LC/MS/MS(Shimadzu LC30AD & API4000/API5000)). Concentrations of test articles, control compounds in the samples were determined by using LC/MS/MS) method. Plotting of the chromatograms and peak area integrations are carried out by Analyst (AB Sciex).
(§3) In the determination of the in vitro elimination constant, ke, of the control compounds, the analyte/internal standard peak area ratios will be converted to percentage remaining (% Remaining) with the following equation: […]
(§4) The slope was measured by the natural logarithm of the percentage of the residual compound and time, T½ and CLint were calculated according to the following formulas, V/M was equal to the 1/concentration of protein.
Background: Microsomes from liver hold many membrane-bound enzymes, among them those of drug oxidation.

Data set [2] can be described thus: Liver microsomes study, Phase I stability (RLM). Particulars: pH 7.4. The class given is in vitro ADME, rat. How it is done: as §2, §3, §4
Setting [3] is: human liver microsomes 0.5 mg/mL, 1 μM test article, read-out: HLM Clint.
The mark [4] stands for this setting: rat liver microsomes 0.5 mg/mL, 1 μM test article, read-out: RLM Clint.

T1 sequence (P29597 whole entry): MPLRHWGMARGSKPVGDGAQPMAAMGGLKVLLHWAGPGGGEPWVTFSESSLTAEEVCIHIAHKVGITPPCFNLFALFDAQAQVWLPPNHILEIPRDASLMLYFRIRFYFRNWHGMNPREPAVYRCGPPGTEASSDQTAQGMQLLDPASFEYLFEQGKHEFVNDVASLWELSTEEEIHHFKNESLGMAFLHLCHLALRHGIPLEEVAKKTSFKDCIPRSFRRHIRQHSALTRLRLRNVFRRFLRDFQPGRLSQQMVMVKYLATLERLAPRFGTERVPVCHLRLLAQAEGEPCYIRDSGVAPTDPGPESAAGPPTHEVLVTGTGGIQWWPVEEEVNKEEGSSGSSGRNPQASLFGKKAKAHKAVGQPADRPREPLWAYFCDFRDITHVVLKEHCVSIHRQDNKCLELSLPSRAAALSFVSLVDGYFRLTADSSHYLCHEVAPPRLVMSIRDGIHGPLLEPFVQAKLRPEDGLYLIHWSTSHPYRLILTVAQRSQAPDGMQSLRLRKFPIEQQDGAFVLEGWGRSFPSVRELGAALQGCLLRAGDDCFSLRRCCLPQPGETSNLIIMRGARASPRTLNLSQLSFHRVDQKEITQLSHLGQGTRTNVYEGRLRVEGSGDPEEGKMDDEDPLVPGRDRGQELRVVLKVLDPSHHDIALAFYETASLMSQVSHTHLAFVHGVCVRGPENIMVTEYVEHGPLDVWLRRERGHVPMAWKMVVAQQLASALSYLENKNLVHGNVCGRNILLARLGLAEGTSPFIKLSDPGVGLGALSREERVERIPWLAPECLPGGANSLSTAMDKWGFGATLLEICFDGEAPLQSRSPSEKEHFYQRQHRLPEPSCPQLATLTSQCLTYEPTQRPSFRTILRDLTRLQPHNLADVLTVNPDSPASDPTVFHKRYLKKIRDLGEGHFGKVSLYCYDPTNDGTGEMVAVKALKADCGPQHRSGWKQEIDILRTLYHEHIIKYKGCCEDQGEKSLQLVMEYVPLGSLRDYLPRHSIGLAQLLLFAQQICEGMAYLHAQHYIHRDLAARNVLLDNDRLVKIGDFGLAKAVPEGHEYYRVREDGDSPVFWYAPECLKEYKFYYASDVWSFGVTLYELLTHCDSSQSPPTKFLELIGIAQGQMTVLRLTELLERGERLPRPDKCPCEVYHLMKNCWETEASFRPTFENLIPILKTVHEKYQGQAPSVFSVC
T3 sequence (P23458 whole entry): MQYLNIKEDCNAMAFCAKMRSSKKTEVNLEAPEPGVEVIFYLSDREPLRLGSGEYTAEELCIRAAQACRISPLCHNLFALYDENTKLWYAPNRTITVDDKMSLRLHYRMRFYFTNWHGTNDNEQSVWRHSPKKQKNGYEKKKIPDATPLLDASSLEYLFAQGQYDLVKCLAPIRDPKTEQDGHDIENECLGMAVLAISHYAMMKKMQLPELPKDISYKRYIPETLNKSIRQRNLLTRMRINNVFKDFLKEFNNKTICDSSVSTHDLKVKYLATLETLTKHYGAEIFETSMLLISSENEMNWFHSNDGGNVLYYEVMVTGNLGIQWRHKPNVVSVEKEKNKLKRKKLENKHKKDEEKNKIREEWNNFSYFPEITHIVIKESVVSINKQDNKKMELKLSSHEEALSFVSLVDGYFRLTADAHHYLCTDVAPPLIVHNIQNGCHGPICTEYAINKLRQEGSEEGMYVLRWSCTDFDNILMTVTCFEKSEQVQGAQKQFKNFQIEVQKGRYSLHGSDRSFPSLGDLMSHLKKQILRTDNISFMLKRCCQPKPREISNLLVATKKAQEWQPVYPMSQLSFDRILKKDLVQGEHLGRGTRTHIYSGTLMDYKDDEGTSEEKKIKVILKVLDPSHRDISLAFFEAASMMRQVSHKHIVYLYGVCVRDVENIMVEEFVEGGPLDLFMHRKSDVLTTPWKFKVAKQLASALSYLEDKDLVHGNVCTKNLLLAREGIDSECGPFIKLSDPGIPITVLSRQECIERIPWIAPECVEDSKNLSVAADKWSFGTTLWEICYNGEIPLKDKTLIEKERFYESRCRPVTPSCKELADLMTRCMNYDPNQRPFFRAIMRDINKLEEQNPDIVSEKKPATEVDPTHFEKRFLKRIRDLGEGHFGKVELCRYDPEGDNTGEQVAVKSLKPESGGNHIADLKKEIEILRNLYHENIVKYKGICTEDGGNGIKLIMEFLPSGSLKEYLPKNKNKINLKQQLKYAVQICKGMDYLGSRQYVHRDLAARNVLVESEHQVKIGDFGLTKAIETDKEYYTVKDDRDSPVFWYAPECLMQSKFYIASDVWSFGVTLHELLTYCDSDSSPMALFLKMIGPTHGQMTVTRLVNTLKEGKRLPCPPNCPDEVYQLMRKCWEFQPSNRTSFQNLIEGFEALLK

A word on the IC50: it is the midpoint of a concentration-inhibition curve. Higher therefore signals lower potency. For `CN1CCC(n2cc(Nc3ncc(Cl)c(-c4ccc(C(=O)NCC#N)cc4)n3)cn2)CC1` [Example 44, 4-(5-Chloro-2-((1-(1-methylpiperidin-4-yl)-1H-pyrazol-4-yl)amino)pyrimidin-4-yl)-N-(cyanomethyl)benzamide], the half-inhibitory concentration (IC50) on TYK2 is 78.7 nM; against JAK2, 0.54 nM; on JAK1, 6.55 nM; on JAK2V617F it was 5.11 nM. Moreover, the microsomal CLint at 1 μM in data set [1] (setting [3]) is 19.5 µL/min/mg.

Turning to `Cc1cnc(Nc2cnn(C3CCN(C)CC3)c2)nc1-c1ccc(C(=O)NCC#N)cc1` [Example 49, N-(cyanomethyl)-4-(5-methyl-2-((1-(1-methylpiperidin-4-yl)-1H-pyrazol-4-yl)amino)pyrimidin-4-yl)benzamide], the IC50 turned out to be 38.2 nM against TYK2, 0.81 nM against JAK2, 7.13 nM against JAK1 and 57.2 nM against JAK2V617F.

Turning to `C[C@@H](C#N)NC(=O)c1ccc(-c2nc(Nc3cnn(CC#N)c3)ncc2F)cc1` [Example 53, (S)—N-(1-cyanoethyl)-4-(2-((1-(cyanomethyl)-1H-pyrazol-4-yl)amino)-5-fluoropyrimidin-4-yl)benzamide], the half-maximal inhibitory concentration (IC50) was determined as 198 nM on TYK2, 293 nM against JAK2, 69.7 nM against JAK1 and 658 nM against JAK2V617F.

For `CC[C@@H](C#N)NC(=O)c1ccc(-c2nc(Nc3cnn(C4CCN(C)CC4)c3)ncc2F)cc1` [Example 59, (S)—N-(1-cyanopropyl)-4-(5-fluoro-2-((1-(1-methylpiperidin-4-yl)-1H-pyrazol-4-yl)amino)pyrimidin-4-yl)benzamide], the IC50 at TYK2 is 111 nM; against JAK2 it was 83.4 nM; against JAK1, 23.6 nM; at JAK2V617F, 136 nM.

Turning to `N#CC1(CNC(=O)c2ccc(-c3nc(Nc4cnn(C5CC5)c4)ncc3Cl)cc2)CC1` [Example 60, 4-(5-Chloro-2-((1-cyclopropyl-1H-pyrazol-4-yl)amino)pyrimidin-4-yl)-N-((1-cyanocyclopropyl)methyl)benzamide], the microsomal CLint at 1 μM came out at 40.8 µL/min/mg in data set [2] (setting [4]) and 24.6 µL/min/mg in data set [1] (setting [3]). The IC50 against JAK2 worked out at 30.6 nM; against JAK1, 15.3 nM.

For `Cc1cnc(Nc2cnn(C3CCN(C)CC3)c2)nc1-c1ccc(C(=O)N[C@H](C)C#N)cc1` [Example 62, (R)—N-(1-cyanoethyl)-4-(5-methyl-2-((1-(1-methylpiperidin-4-yl)-1H-pyrazol-4-yl)amino)pyrimidin-4-yl)benzamide], the IC50 was determined as 215 nM against TYK2, 71 nM on JAK2 and 23.1 nM against JAK1. The microsomal CLint at 1 μM in data set [1] (setting [3]) is 10.6 µL/min/mg.

As for `Cc1cnc(Nc2cnn(C3CCOCC3)c2)nc1-c1ccc(C(=O)N[C@@H](C)C(F)(F)F)cc1` [Example 75, (S)-4-(5-Methyl-2-((1-(tetrahydro-2H-pyran-4-yl)-1H-pyrazol-4-yl)amino)pyrimidin-4-yl)-N-(1,1,1-trifluoropropan-2-yl)benzamide], the IC50 was determined as 12.9 nM against JAK1 and 8.91 nM on JAK2V617F. For the same compound, the microsomal CLint at 1 μM in data set [1] (setting [3]) turned out to be 22.6 µL/min/mg.

As to `CC(C)(C#N)CNC(=O)c1ccc(-c2nc(Nc3cnn(C4CCOCC4)c3)ncc2Cl)cc1` [Example 80, 4-(5-Chloro-2-((1-(tetrahydro-2H-pyran-4-yl)-1H-pyrazol-4-yl)amino)pyrimidin-4-yl)-N-(2-cyano-2-methylpropyl)benzamide], the IC50 at TYK2 was found to be 370 nM; against JAK2, 0.58 nM; at JAK1 it was 22.7 nM; at JAK2V617F, 7.74 nM.

For `Cc1cnc(Nc2cnn(C3CC3)c2)nc1-c1ccc(C(=O)NCC#N)nc1` [Example 83, N-(cyanomethyl)-5-(2-((1-cyclopropyl-1H-pyrazol-4-yl)amino)-5-methylpyrimidin-4-yl)picolinamide], the IC50 stood at 45.2 nM on TYK2, 30.9 nM on JAK2, 20 nM against JAK1 and 67.8 nM at JAK2V617F. In addition, the microsomal CLint at 1 μM in data set [2] (setting [4]) was found to be 26.1 µL/min/mg.

Regarding `Cc1cnc(Nc2cnn(C3CC3)c2)nc1-c1ccc(C(=O)N[C@@H](C)C#N)cc1` [Example 94, (S)—N-(1-cyanoethyl)-4-(2-((1-cyclopropyl-1H-pyrazol-4-yl)amino)-5-methylpyrimidin-4-yl)benzamide], the concentration for half-maximal inhibition (IC50) against TYK2 was 31.4 nM; on JAK2 it was 10.6 nM; against JAK1, 5.17 nM; against JAK2V617F, 33.3 nM.

On to `CC(C)(C)C(=O)N1CCC(n2cc(Nc3ncc(Cl)c(-c4ccc(C(=O)NCC#N)cc4)n3)cn2)CC1` [Example 98, 4-(5-Chloro-2-((1-(1-pivaloylpiperidin-4-yl)-1H-pyrazol-4-yl)amino)pyrimidin-4-yl)-N-(cyanomethyl)benzamide], for which the half-maximal inhibitory concentration (IC50) against JAK1 stood at 17.8 nM; on JAK2V617F it was 1.3 nM. The microsomal CLint at 1 μM in data set [1] (setting [3]) worked out at 147 µL/min/mg.

For the compound `C[C@@H](C#N)NC(=O)c1ccc(-c2nc(Nc3cnn(C4CCN(C(=O)C(C)(C)C)CC4)c3)ncc2Cl)cc1` [Example 99, (S)-4-(5-Chloro-2-((1-(1-pivaloylpiperidin-4-yl)-1H-pyrazol-4-yl)amino)pyrimidin-4-yl)-N-(1-cyanoethyl)benzamide], the IC50 is 23.6 nM at JAK1 and 1.32 nM against JAK2V617F. Besides, the microsomal CLint at 1 μM in data set [1] (setting [3]) came to 113 µL/min/mg.

Regarding `Cc1cnc(Nc2cnn(C3CCN(C(=O)C45CC(C4)C5)CC3)c2)nc1-c1ccc(C(=O)NCC#N)cc1` [Example 114, 4-(2-((1-(1-(Bicyclo[1.1.1]pentane-1-carbonyl)piperidin-4-yl)-1H-pyrazol-4-yl)amino)-5-methylpyrimidin-4-yl)-N-(cyanomethyl)benzamide], the values for the microsomal CLint at 1 μM in data set [2] (setting [4]) and in data set [1] (setting [3]) were 93.6 µL/min/mg and 204 µL/min/mg, respectively. The compound further yielded an IC50 at JAK1 of 12.5 nM.

For the compound `Cc1cnc(Nc2cnn(C3CC4CCC(C3)N4CC(F)(F)F)c2)nc1-c1ccc(C(=O)NCC#N)cc1` [Example 134, N-(cyanomethyl)-4-(5-methyl-2-((1-((1R,3s,5S)-8-(2,2,2-trifluoroethyl)-8-azabicyclo[3.2.1]octan-3-yl)-1H-pyrazol-4-yl)amino)pyrimidin-4-yl)benzamide], the microsomal CLint at 1 μM came out at 1950 µL/min/mg in data set [2] (rat, microsomes) and 1190 µL/min/mg in data set [1] (human, microsomes). Moreover, the results for the IC50 against JAK2 and against JAK1 were 10.7 nM and 22.4 nM, respectively.

For `C[C@@H](C#N)NC(=O)c1ccc(-c2nc(Nc3cnn(C4CC4)c3)ncc2C(F)F)cc1F` [Example 138, (S)—N-(1-cyanoethyl)-4-(2-((1-cyclopropyl-1H-pyrazol-4-yl)amino)-5-(difluoromethyl)pyrimidin-4-yl)-2-fluorobenzamide], the microsomal CLint at 1 μM was 8.5 µL/min/mg in data set [2] (setting [4]) and 10.7 µL/min/mg in data set [1] (setting [3]). The values for the IC50 on JAK2 and at JAK1 were 688 nM and 432 nM, respectively.

As for `COCCn1cc(Nc2ncc(Cl)c(-c3ccc(C(=O)N[C@@H](C)C#N)cc3)n2)cn1` [Example 177, (S)-4-(5-chloro-2-((1-(2-methoxyethyl)-1H-pyrazol-4-yl)amino)pyrimidin-4-yl)-N-(1-cyanoethyl)benzamide], the IC50 was found to be 2.74 nM on JAK2, 13.5 nM at JAK1 and 43.9 nM against JAK2V617F. Also, the microsomal CLint at 1 μM in data set [1] (setting [3]) is 38.7 µL/min/mg.

For the origin of these results see patent publication US12595253B2, “Benzamides of pyrazolylamino-pyrimidinyl derivatives, and compositions and methods thereof” (LYNK PHARMACEUTICALS CO. LTD., priority 2019, dated 2026).
